Experimental data published in ChEMBL document CHEMBL1777782, “Indole 5-carboxamide Thumb Pocket I inhibitors of HCV NS5B polymerase with nanomolar potency in cell-based subgenomic replicons (part 2): central amino acid linker and right-hand-side SAR studies” (Bioorg Med Chem Lett, 2011).
Converted amounts (≈) assume the structure as drawn.

Tests used:
[1] = Half life in rat liver microsomes at 10 uM; type: ADME, Microsome
[2] = Cmax in overnight-fasted Sprague-Dawley rat at 10, mg/kg, po administered by oral gavage; type: ADME, organism-based; settings: in vivo
Hepatitis C virus = test: Antiviral activity against Hepatitis C virus genotype 1b infected in human Huh-7 cells assessed as inhibition of viral replication after 72 hrs; type: functional, organism-based, Hepacivirus hominis; settings: Huh-7, 72 h
[3] = AUC in overnight-fasted Sprague-Dawley rat at 10, mg/kg, po administered by oral gavage; type: ADME, organism-based; settings: plasma
[4] = Mean retention time in overnight-fasted Sprague-Dawley rat at 10, mg/kg, po administered by oral gavage; type: ADME, organism-based; settings: in vivo
[5] = Permeability across apical to basolateral side in human Caco2 cells; settings: Caco-2
[6] = Tmax in overnight-fasted Sprague-Dawley rat at 10, mg/kg, po administered by oral gavage; type: ADME, organism-based; settings: in vivo
[7] = Half life in human liver microsomes at 10 uM
[8] = Inhibition of HCV 1b NS5B RNA dependent RNA polymerase by scintillation proximity assay; design: species or system Hepacivirus hominis
[9] = Selectivity ratio for polio virus RNA-dependent RNA polymerase to HCV 1b NS5B RNA dependent RNA polymerase
physchem = settings: phosphate buffer, pH 7.2
[10] = Selectivity ratio for mammalian DNA-dependent RNA polymerase II to HCV 1b NS5B RNA dependent RNA polymerase

| SMILES | half-life at 10 µM [1] [min] | Cmax [2] [nM] | EC50 (Hepatitis C virus) [nM] | AUC [3] [µM·h] | MRT [4] [min] | Papp A→B [5] [×10⁻⁶ cm/s] | Tmax [6] [min] | half-life at 10 µM ([7]; microsomes) [min] | IC50 [8] [nM] | Ratio [9] | solubility thermodynamic at 24 h (physchem) [µg/mL] | Ratio [10] | half-life at 10 µM ([7]; liver microsomes) [min] |
| --- | --- | --- | --- | --- | --- | --- | --- | --- | --- | --- | --- | --- | --- |
| CN1CC[C@@](NC(=O)c2ccc3c(C4CCCCC4)c(-c4ccccn4)n(C)c3c2)(C(=O)Nc2ccc(/C=C/C(=O)O)cc2)C1 | 18 | 320 | 34 | 0.81 | 228 | 8.1 | 30 | 456 | 21 | > 150 | 15 (≈ 24.8 µM) | > 150 | – |
| Cn1c(-c2ccccn2)c(C2CCCCC2)c2ccc(C(=O)NC(C)(C)C(=O)Nc3ccc(/C=C/C(=O)O)cc3)cc21 | – | – | – | – | – | – | 15 | – | – | – | – | – | – |
| Cn1c(-c2ccccn2)c(C2CCCCC2)c2ccc(C(=O)NC3(C(=O)Nc4ccc(/C=C/C(=O)O)cc4)CCC3)cc21 | 17 | 290 | 43 | 0.35 | – | 39 | 30 | 50 | 52 | > 150 | 6 (≈ 10.4 µM) | > 150 | – |
| Cn1c(-c2ccccn2)c(C2CCCCC2)c2ccc(C(=O)NC(C)(C)C(=O)Nc3ccc(CCC(=O)O)cc3)cc21 | – | 630 | 267 | 0.81 | 102 | 12.7 | 30 | – | 132 | > 150 | 244 (≈ 431 µM) | > 150 | 63 |
